Consider three molecules from patent US20230416299A1, “COMPOUND AND METHOD FOR THE TREATMENT AND DIAGNOSIS OF NEURODEGENERATIVE CONDITIONS” (Swansea University, priority 2013, published 2023).

In series [1] the test system is mouse E11.5 brain primary cultures. Put plainly: Mouse E11.5 brain primary cultures (Islet1+, active caspase 3+, BrdU, Nkx6.1 counts). As to conditions: for Number of Islet1+ cells: wild type cultures, 3 DIV; for Effect on Islet1+ cells with Lxr antagonist GGPP / Number of active caspase-3+ cells: wt cultures; for Number of active caspase-3+ cells: 10 μM 3β,7α-diHCA, 3βH,7O-CA, 25-HC, low concentrations of 3β,7β-diHCA, 3β-HCA. Type of series: cell-based. The protocol:
Primary Brain Cultures. Brains from E11.5 mice were manually dissected, plated on poly-D-lysine (150,000 cells/cm2) and grown in serum-free N2 media consisting of 1:1 mixture of F12 and DMEM with 10 ng/mL insulin, 100 μg/mL apo-transferrin, 100 μM putrescine, 20 nM progesterone, 30 nM selenium, 6 mg/mL glucose, and 1 mg/mL BSA. Cells were treated for 3 days in vitro (DIV) with the compounds of interest, fixed with 4% PFA and processed for staining using appropriate antibodies.
For BrdU analysis, cells were treated with BrdU one hour after plating and media was replaced with fresh medium after 16 h. After a further 2 days in culture, cells were treated for 30 min with 2N HCl and then immunocytochemistry was performed to evaluate the number of double BrdU+;Islet1+ cells (a measure of motor neuron neurogenesis). Hoechst staining was performed by permeabilizing cells with a 0.3% Triton-X 100/PBS solution for 5 min followed by incubation with Hoechst 33258 (Sigma) for 10 min.
Antibodies and Detection Procedures. Cells were fixed in 4% PFA, washed in PBS and blocked in 5% normal goat serum/PBS for 1 h at room temperature. Primary antibodies were diluted in PBS (pH 7.4), 0.3% Triton X-100, 1% BSA and incubations were carried out overnight at +4° C. or at room temperature for 2 h. The antibodies used were anti-: BrdU (1:400; Abeam), Islet-1 (1:100; Developmental Studies Hybridoma Bank), cleaved caspase-3 (Asp175) (1:100; Cell Signaling Technology), tyrosine hydroxylase (TH;1:1000; Pel-Freeze) GABA (1:1,000; Sigma), Brn3a (1:250; Millipore), Nkx6.1 (1:200; Novus Biologicals), choline acetyltransferase (ChAT; 1:500; Millipore) and appropriate secondary antibodies (Jackson ImmunoResearch or Alexa). Cells positive for the corresponding marker were counted directly at the microscope at a magnification of 20 x. Cells were counted in every well, in eight consecutive fields (going from one side of the well to the other, passing through the center), in three different wells per experiment and in three different experiments per condition. Random pictures of the wells were taken for every condition to document the result, and representative pictures were subsequently selected to represent the quantitative data. Photos were acquired with a Zeiss Axioplan microscope and a Hamamatsu camera C4742-95 using the Openlab software.

The test system of series [2] is Islet-1:GFP transgenic zebrafish embryos. Type of series: in vivo. The protocol: (§1) Quantitative PCR. Total RNA was extracted from SN4741 cells and zebrafish treated with the compounds of interest using the RNeasy Mini Kit (Qiagen), 1 μg was treated with RQ1 RNase-free DNase (Promega) and reverse transcribed using Superscript II Reverse Transcriptase (Invitrogen) and random primers (Invitrogen) (RT+ reaction). Parallel reactions without reverse transcriptase enzyme were done as a control (RT− reaction), and Sybergreen real-time quantitative PCR assays were performed. Expression levels were obtained by normalization with the value of the housekeeping gene encoding actin obtained for every sample in parallel assays.
Zebrafish Strain and Mainrenance Zebrafish were raised on a 14/10 h day/night cycle and were kept at 28.5° C. Islet-1:GFP transgenic embryos were obtained via natural spawning and staged in hours or days post fertilization (hpf and dpf) according to Kimmel et al). Embryos older than 24 hpf were treated with 0.03% phenylthiourea (PTU) to inhibit pigmentation. MO injections were performed using splice site specific zebrafish 1xr MO. MO injected embryos were immediately dechorionated and transferred to a 96 well plate and exposed to dimethyl sulfoxide (DMSO) treated or ligand treated medium.
Compound Exposure. Islet-1:GFP embryos were collected by natural mating and immediately (at 1 cell stage) dechorionated and transferred to a 96 well plate. Each of the compounds tested were obtained as 10 mM stock and diluted in embryo medium to a final concentration of 10 μM, and 200 μL was added to each well. DMSO or propan-2-ol treated embryo medium was taken as control. Ligand solutions were replaced every 12 h with fresh ligand solution prepared in PTU treated embryo medium. Embryos were collected at 48 hpf, fixed for 4 h at room temperature with 4% paraformaldehyde and then washed and kept in PBST. Immunocytochemistry was performed using an anti-GFP antibody and fluorescence was viewed and photographed using a Zeiss Axioplan compound microscope and a Zeiss Axiocam digital camera.

In series [3] the target is T1, Lxrβ (Homo sapiens, UniProt P55055).
T1 construct: expressed in transfected cells; host or cells: SN4741 mouse neuronal cell line
T1 sequence (P55055 1-460): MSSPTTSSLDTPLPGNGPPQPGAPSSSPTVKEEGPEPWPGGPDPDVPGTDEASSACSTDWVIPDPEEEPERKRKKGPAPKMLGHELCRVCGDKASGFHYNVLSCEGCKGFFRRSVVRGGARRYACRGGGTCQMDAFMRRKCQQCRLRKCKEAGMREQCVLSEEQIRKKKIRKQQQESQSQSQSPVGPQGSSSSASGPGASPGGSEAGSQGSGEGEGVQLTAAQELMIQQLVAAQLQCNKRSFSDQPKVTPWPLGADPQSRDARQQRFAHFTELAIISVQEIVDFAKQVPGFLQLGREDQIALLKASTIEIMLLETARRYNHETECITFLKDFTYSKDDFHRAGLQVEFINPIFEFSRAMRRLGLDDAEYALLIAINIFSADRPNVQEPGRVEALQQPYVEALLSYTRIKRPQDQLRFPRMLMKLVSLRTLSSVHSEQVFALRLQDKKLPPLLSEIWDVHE
As to the kind of experiment: Lxr-responsive luciferase reporter assay (Lxre + Lxrβ) in SN4741 neural cells. Type of series: cell-based, mouse. As to conditions: for Lxrβ activation, luciferase activity: SN4741 cells, 10 μM, 24 h. The source says:
(§2) Luciferase Reporter Assay.
A general note: Reporter assays use an easily measured gene product as a stand-in for the process of interest.

For series [4], the target named is T2, Lxrα (Homo sapiens, UniProt Q13133).
T2 construct: expressed in transfected cells; host or cells: SN4741 mouse neuronal cell line
T2 sequence (Q13133 1-447): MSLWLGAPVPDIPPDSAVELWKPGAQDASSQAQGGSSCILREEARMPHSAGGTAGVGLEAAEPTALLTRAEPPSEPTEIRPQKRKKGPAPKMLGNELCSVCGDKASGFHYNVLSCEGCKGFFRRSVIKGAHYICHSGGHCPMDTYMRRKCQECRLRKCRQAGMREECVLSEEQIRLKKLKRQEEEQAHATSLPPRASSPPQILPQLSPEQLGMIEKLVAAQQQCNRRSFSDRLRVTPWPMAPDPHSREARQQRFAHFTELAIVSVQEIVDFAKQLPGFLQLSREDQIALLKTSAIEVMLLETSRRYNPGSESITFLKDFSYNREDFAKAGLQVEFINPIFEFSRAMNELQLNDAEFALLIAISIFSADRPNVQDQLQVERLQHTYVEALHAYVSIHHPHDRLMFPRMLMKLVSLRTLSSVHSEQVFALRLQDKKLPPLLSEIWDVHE
As to the kind of experiment: Lxr-responsive luciferase reporter assay (Lxre + Lxrα) in SN4741 neural cells. Type of series: cell-based, mouse. Particulars: for Lxrα activation, luciferase activity: 10 μM, 24 h.
From the text: as §2

Series [5] concerns the target T3, Lxrβ-LBD (Homo sapiens, UniProt P55055).
T3 construct: purchased Invitrogen
T3 sequence (P55055 222-460 limits assumed): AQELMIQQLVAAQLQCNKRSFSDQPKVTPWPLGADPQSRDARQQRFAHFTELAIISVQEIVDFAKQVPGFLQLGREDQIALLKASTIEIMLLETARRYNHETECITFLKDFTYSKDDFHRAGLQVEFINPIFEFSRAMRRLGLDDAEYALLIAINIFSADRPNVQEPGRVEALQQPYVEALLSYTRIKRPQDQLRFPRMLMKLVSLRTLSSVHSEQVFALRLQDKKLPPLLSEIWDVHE
Put plainly: LanthaScreen TR-FRET Lxrβ coactivator assay. Format: binding. The source says:
Lxrβ Ligand Binding Assay. For Lxrβ ligand binding activity measurement, the applicants used the LANTHASCREEN™ TR-FRET Lxrβ Coactivator Assay (Invitrogen). The assay uses a terbium (Tb)-labeled anti-GST antibody, a fluorescein-labeled coactivator peptide and the Lxrβ-LBD tagged with glutathione-S-transferase (GST). Binding of the agonist/ligand to Lxrβ-LBD causes a conformational change that result in an increase in the affinity of the Lxrβ for the coactivator peptide. The close proximity of the fluorescently labeled coactivator peptide to the Tb-labeled antibody causes an increase in the TR-FRET signal intensity. The TR-FRET ratio of 520/495 was calculated using a Victor multi label reader with an excitation wavelength of 340 nm and emission wavelengths of 520 nm and 495 nm. The activational capacity of potential ligands was tested in a […] polypropylene plate, following the manufacturer's protocol.
(In TR-FRET formats the signal depends on donor and acceptor labels being close together.)

For series [6], the system named is Abca1, Abcg1 and Srebf1 transcript levels. As to the kind of experiment: Quantitative PCR of Lxr target genes in SN4741 cells. Particulars: SN4741 cells treated 3 h. Type of series: cell-based, mouse. How it is done: as §1

Regarding `CC(CCC[C@@H](C)[C@H]1CC[C@H]2[C@@H]3C(=O)C=C4C[C@@H](O)CC[C@]4(C)[C@H]3CC[C@]12C)C(=O)O` (stereo partly drawn) [3βH, 7O-CA, 3β-hydroxy-7-oxocholest-5-en-26-oic acid], in series [1], the “Number of other midbrain neurons (TH+ dopamine, GABAergic, red nucleus)” value is “did not affect the number of other midbrain neurons”; the “Number of Islet1+ cells” value is reported as “increased the number of Islet1+ oculomotor cells in the cultures”; the “Number of active caspase-3+ cells” value is “did not affect the number of active caspase-3+ cells”. The “Effect on Islet1+ cells with Lxr antagonist GGPP” value in series [1] (GGPP 10 μM) was “blocked by the Lxr antagonist GGPP”. In series [2] (10 μM), the “Islet-1 mRNA and protein level (qPCR, western blot)” value was “increase in the level of Islet-1 mRNA and protein”; the “abca1 mRNA expression in vivo” value was “enhanced expression of abca1”. Besides, in series [2] (10 μM, 48 hpf), the “Islet-GFP expression in cranial nerves” value is “increased Islet-GFP expression” and the “Number of Islet1+ cells in cranial nerves (III, IV, V, VII, X)” value is “no significant effect on the number of Islet1+ cells”. Further, the “Islet-GFP levels after lxr morpholino (MO) injection” value in series [2] (10 μM, lxr MO vs control scrambled MO) was “abolished the in vivo increase in Islet-GFP levels”. Further, the “Lxrβ activation, luciferase activity” value in series [3] is “have the ability to activate both Lxrs”. Besides, the “Lxrα activation, luciferase activity” value in series [4] is reported as “have the ability to activate both Lxrs”.

As for `CC(CCC[C@@H](C)[C@H]1CC[C@H]2[C@@H]3[C@@H](O)C=C4C[C@@H](O)CC[C@]4(C)[C@H]3CC[C@]12C)C(=O)O` (stereo partly drawn) [3β,7β-diHCA, 3β,7β-dihydroxycholest-5-en-26-oic acid], the “Competitor concentration with significant difference (p<0.05) from 10 μM 3β,7α-diHCA alone in TR-FRET Lxrβ coactivator assay” value in series [5] (added to 10 μM 3β,7α-diHCA) was ≥ 2 µM. Further, the “Competition with 3β,7α-diHCA in TR-FRET Lxrβ coactivator assay” value in series [5] (increasing concentrations with 3β,7α-diHCA at its most potent concentration) is listed as “the effect of 3β,7α-diHCA was reduced to that of the latter acids”. Moreover, the “Concentration at which toxicity is initiated (active caspase-3+ cells)” value in series [1] (mouse, E11.5 mouse brain primary cultures, 3 days) was 1000 nM. For the same molecule, in series [1], the “Number of Islet1+ cells” value was “caused the loss of Islet1+ cells in the cultures” and the “Number of active caspase-3+ cells” value is “increased the number of active caspase-3+ cells”. In series [2] (10 μM in medium), the “Toxicity to zebrafish embryos” value is given as “deleterious toxic effect which impaired the survival of the fish”. Further, the “Abca1, Abcg1 and Srebf1 transcript levels” value in series [6] was “induced transcription, but to a lesser extent”. For the same molecule, the “Lxrβ activation, luciferase activity” value in series [3] is on record as “have the ability to activate both Lxrs”. The “Lxrβ activational capacity in combination with 22R-HC” value in series [3] (acid 10 μM + 22R-HC 10 μM) is “No additive effect was observed”. The “Lxrα activation, luciferase activity” value in series [4] is “have the ability to activate both Lxrs”.

Turning to `C[C@H](CCCC(C)(C)O)[C@H]1CC[C@H]2[C@@H]3CC=C4C[C@@H](O)CC[C@]4(C)[C@H]3CC[C@]12C` [25-HC, cholest-5-ene-3β,25-diol], the “Effect on active caspase-3+ cells with GGPP” value in series [1] (GGPP 10 μM, 3β,7β-diHCA, 3β-HCA at 2 μM) is listed as “GGPP sensitive manner”. The “Effect on Islet1+ cells in cultures from Lxrα−/−β−/− mice” value in series [1] (Lxrα−/−β−/− cultures) is given as “blocked in cultures from Lxrα−/−β−/−animals”. In addition, in series [1], the “Number of Islet1+ cells” value is given as “increase the number of Islet1+ oculomotor cells” and the “Number of active caspase-3+ cells” value is “reduced the number of active caspase-3+ cells”. The “Effect on Islet1+ cells with Lxr antagonist GGPP” value in series [1] (GGPP 10 μM) is given as “inhibited by the Lxr antagonist GGPP”. The “Islet-GFP expression in cranial nerves” value in series [2] (10 μM, 48 hpf) was “modest increase in the levels of Islet-1”. For the same molecule, in series [3], the “Lxrβ activation, luciferase activity” value was “activate Lxr”. In series [4], the “Lxrα activation, luciferase activity” value was “activate Lxr”. For the same molecule, the “Lxr luciferase activity with the Lxr antagonist GGPP” value in series [4] (metabolite 10 μM + GGPP 10 μM) was “similarly blocked”.
